Measured values: the supplement of paper PMC10307832

How the values were obtained:
Experiment in all cases: relative viability (nuclei count vs DMSO), 5 days (fraction); higher = more cells survive
[1] = compound: COC1=CC=C(C=C1)CN2C=CC3=C2C=C(C=C3)C(=O)NO + Nc1nc2[nH]cc(CCc3ccc(C(=O)N[C@@H](CCC(=O)O)C(=O)O)cc3)c2c(=O)[nH]1 [Pemetrexed] (partner 0.2 µM)
Outline: (§1)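 For relative viability, nuclei counts in treated wells were divided by those in vehicle wells. Lung cancer cell lines had been pin-tool dosed in 1536-well plates the day after seeding and cultured for 5 days, then fixed and stained in one step (final 0.05% Triton X-100, 1% formaldehyde, 1 ug/ml Hoechst) and imaged at 4×. Doses were one drug alone or a fixed anchor-drug dose plus five library-drug doses (not always all listed) in √10 steps, and values are duplicate-plate medians.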

[2] = compound: COC1=CC=C(C=C1)CN2C=CC3=C2C=C(C=C3)C(=O)NO + CC(=O)c1c(C)c2cnc(Nc3ccc(N4CCNCC4)cn3)nc2n(C2CCCC2)c1=O [Palbociclib] (partner 0.5 µM)
Outline: as §1

Veliparib + Decitabine = compound: C[C@]1(c2nc3c(C(N)=O)cccc3[nH]2)CCCN1 [Veliparib] + Nc1ncn([C@H]2C[C@H](O)[C@@H](CO)O2)c(=O)n1 [Decitabine] (partner 2 µM)
Outline: as §1

Veliparib + Alpelisib = compound: C[C@]1(c2nc3c(C(N)=O)cccc3[nH]2)CCCN1 [Veliparib] + Cc1nc(NC(=O)N2CCC[C@H]2C(N)=O)sc1-c1ccnc(C(C)(C)C(F)(F)F)c1 [Alpelisib] (partner 2 µM)
Outline: as §1

Cell Line | relative viability ([1]; first compound 0.08 µM) | relative viability ([1]; first compound 0.253 µM) | relative viability ([1]; first compound 0.8 µM) | relative viability ([1]; first compound 2.53 µM) | relative viability ([1]; first compound 8 µM) | relative viability ([2]; first compound 0.08 µM) | relative viability ([2]; first compound 0.253 µM) | relative viability ([2]; first compound 0.8 µM) | relative viability ([2]; first compound 2.53 µM) | relative viability ([2]; first compound 8 µM) | relative viability (Veliparib + Decitabine; first compound 0.02 µM) | relative viability (Veliparib + Decitabine; first compound 0.06325 µM) | relative viability (Veliparib + Decitabine; first compound 0.2 µM) | relative viability (Veliparib + Decitabine; first compound 0.6325 µM) | relative viability (Veliparib + Decitabine; first compound 2 µM) | relative viability (Veliparib + Alpelisib; first compound 0.02 µM) | relative viability (Veliparib + Alpelisib; first compound 0.06325 µM) | relative viability (Veliparib + Alpelisib; first compound 0.2 µM) | relative viability (Veliparib + Alpelisib; first compound 0.6325 µM) | relative viability (Veliparib + Alpelisib; first compound 2 µM)
NCI-H23 | 0.514 | 0.625 | 0.714 | 0.709 | 0.668 | 0.393 | 0.611 | 0.556 | 0.496 | 0.461 | 0.318 | 0.289 | 0.306 | 0.296 | 0.334 | 0.662 | 0.623 | 0.749 | 0.564 | 0.713
Calu-6 | – | – | – | – | – | – | – | – | – | – | – | – | – | – | – | 1.15 | 0.909 | 1.01 | 0.988 | 1.02
LC-2-ad | 0.283 | 0.292 | 0.307 | 0.303 | 0.261 | 0.446 | 0.532 | 0.506 | 0.484 | 0.47 | 0.775 | 0.801 | 0.706 | 0.673 | 0.763 | – | 0.783 | 0.846 | 0.926 | 0.897
HARA | – | 0.263 | 0.277 | 0.258 | 0.203 | 0.153 | 0.218 | 0.243 | 0.3 | 0.238 | 0.565 | – | 0.47 | 0.499 | 0.311 | 0.943 | 0.769 | 0.921 | 0.827 | 0.822
NCI-H1993 | 0.542 | 0.529 | 0.648 | 0.603 | 0.549 | 0.586 | 1.12 | 0.749 | 0.714 | 0.593 | – | 0.526 | 0.614 | 0.541 | 0.567 | 0.655 | 0.615 | 0.726 | 0.639 | 0.75
SK-MES-1 | 0.968 | 0.985 | 0.9 | 0.896 | 0.849 | 0.357 | 0.324 | 0.299 | 0.287 | 0.31 | 0.364 | 0.293 | 0.341 | 0.324 | 0.337 | 0.938 | 0.712 | 0.878 | 0.785 | 0.848
NCI-H2023 | 0.23 | 0.199 | 0.207 | 0.208 | 0.209 | 0.36 | 0.355 | 0.433 | 0.359 | 0.365 | 0.215 | 0.152 | 0.172 | 0.141 | 0.13 | 0.629 | 0.621 | 0.569 | 0.502 | 0.669
EMC-BAC-2 | 0.428 | – | 0.451 | 0.476 | 0.491 | 0.401 | – | 0.528 | 0.511 | 0.459 | 0.997 | – | 0.936 | 0.874 | 0.984 | 0.783 | 0.746 | 0.74 | 0.682 | 0.739
H3255 | 0.576 | 0.519 | 0.614 | 0.583 | 0.583 | 0.301 | 0.304 | 0.316 | 0.311 | 0.32 | 0.615 | 0.538 | 0.713 | 0.567 | 0.589 | 0.656 | 0.841 | 0.679 | 0.522 | 0.701
SK-LU-1 | 0.942 | 0.973 | 1 | 1.01 | 0.953 | 0.385 | 0.374 | 0.422 | 0.434 | 0.341 | 0.634 | 0.663 | 0.58 | 0.583 | 0.485 | 1.12 | 0.943 | 1.12 | 0.927 | 1.19
BEN | 0.729 | 0.615 | 0.921 | 0.725 | 0.661 | 0.468 | 0.466 | 0.487 | 0.52 | 0.489 | 0.572 | 0.581 | 0.613 | 0.565 | 0.624 | 0.925 | 0.982 | 1.2 | 0.992 | 1.05
NCI-H727 | – | – | – | – | – | 0.61 | 0.631 | 0.698 | 0.644 | 0.601 | 0.865 | 0.758 | 0.856 | 0.706 | 0.865 | 0.512 | 0.572 | 0.598 | 0.538 | 0.488
NCI-H1755 | 0.421 | 0.379 | 0.443 | 0.437 | 0.512 | 0.464 | 0.48 | 0.5 | 0.448 | 0.423 | 0.675 | 0.709 | 0.629 | 0.595 | 0.707 | 0.898 | 0.939 | 0.942 | 0.881 | 0.922
NCI-H1944 | – | 0.63 | 0.568 | 0.705 | 0.527 | – | 0.36 | 0.315 | 0.338 | 0.308 | 0.408 | 0.398 | 0.353 | 0.41 | 0.407 | 0.792 | 0.849 | 0.752 | 0.818 | 0.756
NCI-H322M | – | – | 0.561 | 0.635 | 0.609 | – | – | 0.513 | 0.435 | 0.48 | – | 0.608 | 0.682 | 0.656 | 0.655 | 0.763 | 0.719 | 0.78 | 0.7 | 0.772
NCI-H647 | 0.142 | 0.154 | 0.149 | 0.166 | 0.231 | 0.441 | 0.364 | 0.379 | 0.494 | 0.438 | 0.376 | 0.346 | 0.298 | 0.299 | 0.26 | 1.38 | 1.07 | 1.42 | 1.22 | 1.11
LXF-289 | – | 0.937 | 0.872 | 0.907 | 0.881 | – | 0.588 | 0.609 | 0.607 | 0.581 | 0.362 | 0.311 | 0.342 | 0.283 | 0.332 | 1.02 | 1.02 | 0.997 | 1.01 | 1.06
HCC-827 | 0.228 | 0.27 | 0.262 | 0.266 | 0.253 | 0.448 | 0.481 | 0.442 | 0.504 | 0.442 | 0.298 | 0.303 | 0.292 | 0.241 | 0.3 | 0.922 | 1.02 | 0.986 | 0.971 | 0.899
